Measurements taken from ChEMBL document CHEMBL1141918 (Bioorg Med Chem Lett, 2005).

Tests used:
Carbonic anhydrase 1 = Carbonic anhydrase 1 (Homo sapiens, UniProt P00915)
Carbonic anhydrase 2 = Carbonic anhydrase 2 (Homo sapiens, UniProt P00918)
Carbonic anhydrase 9 = Carbonic anhydrase 9 (Homo sapiens, UniProt Q16790)
[1] = target: Carbonic anhydrase 5A, mitochondrial (Homo sapiens, UniProt P35218)
Carbonic anhydrase 4 = Carbonic anhydrase 4 (Homo sapiens, UniProt P22748)
Chain of Carbonic anhydrase 4 (P22748 whole entry): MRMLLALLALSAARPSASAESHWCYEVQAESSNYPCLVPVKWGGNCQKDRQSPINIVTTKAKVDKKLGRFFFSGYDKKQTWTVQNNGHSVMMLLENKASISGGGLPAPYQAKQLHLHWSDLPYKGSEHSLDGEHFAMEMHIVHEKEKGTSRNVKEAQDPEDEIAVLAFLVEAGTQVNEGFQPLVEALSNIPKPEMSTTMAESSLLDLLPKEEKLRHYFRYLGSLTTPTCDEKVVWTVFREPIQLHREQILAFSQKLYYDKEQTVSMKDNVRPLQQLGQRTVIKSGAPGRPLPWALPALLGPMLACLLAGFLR

Chain of Carbonic anhydrase 5A, mitochondrial (P35218 whole entry): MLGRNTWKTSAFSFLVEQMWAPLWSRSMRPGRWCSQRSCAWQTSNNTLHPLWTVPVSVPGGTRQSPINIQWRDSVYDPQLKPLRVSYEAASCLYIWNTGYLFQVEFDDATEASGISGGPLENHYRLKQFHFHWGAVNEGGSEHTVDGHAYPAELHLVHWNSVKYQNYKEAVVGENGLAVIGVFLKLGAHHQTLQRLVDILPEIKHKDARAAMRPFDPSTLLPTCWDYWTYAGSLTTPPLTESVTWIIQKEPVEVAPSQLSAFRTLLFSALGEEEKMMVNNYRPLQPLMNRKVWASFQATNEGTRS
Chain of Carbonic anhydrase 1 (P00915 whole entry): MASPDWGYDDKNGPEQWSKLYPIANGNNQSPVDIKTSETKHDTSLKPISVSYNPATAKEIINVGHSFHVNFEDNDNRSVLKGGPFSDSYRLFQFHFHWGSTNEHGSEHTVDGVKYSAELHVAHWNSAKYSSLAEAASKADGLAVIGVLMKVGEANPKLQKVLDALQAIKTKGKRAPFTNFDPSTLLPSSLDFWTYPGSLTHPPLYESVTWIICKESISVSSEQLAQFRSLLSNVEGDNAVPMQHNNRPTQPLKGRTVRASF

Work on `F[P-](F)(F)(F)(F)F.[Na+]` yielded a Ki (Carbonic anhydrase 1) of 11 mM, a Ki (Carbonic anhydrase 2) of 17.5 mM and a Ki (Carbonic anhydrase 9) of 8.1 mM. For the same compound, the Ki [1] was over 300 mM and the Ki (Carbonic anhydrase 4) was 19.1 mM.
